According to the NIST ThermoML archive (doi:10.1016/j.jct.2007.09.004):
Numbers after ± are expanded uncertainties.

Legend:
[1] = 101 kPa, Liquid
[2] = relative permittivity at zero frequency (dimensionless); settings: 101 kPa, Liquid, Parallel plate capacitor
[3] = relative permittivity at zero frequency (dimensionless); xn = mol fraction of the nth substance listed; settings: 101 kPa, Liquid, Parallel plate capacitor
[4] = xn = mol fraction of the nth substance listed; settings: 101 kPa, Liquid

CCCOCCO [2-propoxyethanol]
Settings | mass density, 293.15 K [kg/m3] | mass density, 298.15 K [kg/m3] | mass density, 303.15 K [kg/m3] | relative permittivity at zero frequency, 293.15 K | relative permittivity at zero frequency, 298.15 K | relative permittivity at zero frequency, 303.15 K
[1] | 913.31 ± 1.4 | 908.19 ± 1.5 | 903.11 ± 1.5 | – | – | –
[2] | – | – | – | 11.76 ± 0.04 | 11.5 ± 0.04 | 11.19 ± 0.04

CCCOCCO [2-propoxyethanol] + OCCOCCO
Settings | mass density, 293.15 K [kg/m3] | mass density, 298.15 K [kg/m3] | mass density, 303.15 K [kg/m3] | relative permittivity at zero frequency, 293.15 K | relative permittivity at zero frequency, 298.15 K | relative permittivity at zero frequency, 303.15 K
[3], x1 = 0.0435 | – | – | – | 31.3 ± 0.04 | 30.42 ± 0.04 | 29.5 ± 0.04
[3], x1 = 0.0998 | – | – | – | 30.58 ± 0.04 | 29.69 ± 0.04 | 28.76 ± 0.04
[3], x1 = 0.197 | – | – | – | 29.18 ± 0.04 | 28.31 ± 0.04 | 27.4 ± 0.04
[3], x1 = 0.2962 | – | – | – | 27.57 ± 0.04 | 26.74 ± 0.04 | 25.88 ± 0.04
[3], x1 = 0.3996 | – | – | – | 25.72 ± 0.04 | 24.95 ± 0.04 | 24.14 ± 0.04
[3], x1 = 0.4964 | – | – | – | 23.82 ± 0.04 | 23.13 ± 0.04 | 22.39 ± 0.04
[3], x1 = 0.5955 | – | – | – | 21.73 ± 0.04 | 21.13 ± 0.04 | 20.46 ± 0.04
[3], x1 = 0.6996 | – | – | – | 19.43 ± 0.04 | 18.88 ± 0.04 | 18.29 ± 0.04
[3], x1 = 0.8001 | – | – | – | 17.06 ± 0.04 | 16.58 ± 0.04 | 16.06 ± 0.04
[3], x1 = 0.8999 | – | – | – | 14.55 ± 0.04 | 14.13 ± 0.04 | 13.7 ± 0.04
[3], x1 = 0.9499 | – | – | – | 13.2 ± 0.04 | 12.83 ± 0.04 | 12.46 ± 0.04
[3], x1 = 1 | – | – | – | 11.76 ± 0.04 | 11.5 ± 0.04 | 11.19 ± 0.04
[4], x1 = 0.0436 | 1106.38 ± 1.7 | 1102.72 ± 1.7 | 1098.89 ± 1.8 | – | – | –
[4], x1 = 0.1 | 1093.5 ± 1.6 | 1089.56 ± 1.7 | 1085.52 ± 1.8 | – | – | –
[4], x1 = 0.2007 | 1071 ± 1.6 | 1066.79 ± 1.7 | 1062.47 ± 1.7 | – | – | –
[4], x1 = 0.2997 | 1049.58 ± 1.6 | 1045.22 ± 1.6 | 1040.76 ± 1.7 | – | – | –
[4], x1 = 0.3999 | 1028.62 ± 1.6 | 1024.11 ± 1.6 | 1019.56 ± 1.7 | – | – | –
[4], x1 = 0.4968 | 1008.87 ± 1.5 | 1004.21 ± 1.6 | 999.53 ± 1.6 | – | – | –
[4], x1 = 0.6002 | 988.3 ± 1.5 | 983.48 ± 1.6 | 978.63 ± 1.6 | – | – | –
[4], x1 = 0.6985 | 969.23 ± 1.5 | 964.21 ± 1.5 | 959.16 ± 1.6 | – | – | –
[4], x1 = 0.7998 | 950.04 ± 1.4 | 944.82 ± 1.5 | 939.65 ± 1.6 | – | – | –
[4], x1 = 0.8992 | 931.65 ± 1.4 | 926.35 ± 1.5 | 921.14 ± 1.5 | – | – | –
[4], x1 = 0.9499 | 922.4 ± 1.4 | 917.14 ± 1.5 | 911.97 ± 1.5 | – | – | –
[4], x1 = 1 | 913.31 ± 1.4 | 908.19 ± 1.5 | 903.11 ± 1.5 | – | – | –

CCCOCCO [2-propoxyethanol] + OCCOCCOCCO
Settings | mass density, 293.15 K [kg/m3] | mass density, 298.15 K [kg/m3] | mass density, 303.15 K [kg/m3] | relative permittivity at zero frequency, 293.15 K | relative permittivity at zero frequency, 298.15 K | relative permittivity at zero frequency, 303.15 K
[3], x1 = 0.0501 | – | – | – | 23.33 ± 0.04 | 22.71 ± 0.04 | 22.07 ± 0.04
[3], x1 = 0.1003 | – | – | – | 22.93 ± 0.04 | 22.33 ± 0.04 | 21.68 ± 0.04
[3], x1 = 0.2005 | – | – | – | 22.09 ± 0.04 | 21.51 ± 0.04 | 20.89 ± 0.04
[3], x1 = 0.2999 | – | – | – | 21.25 ± 0.04 | 20.64 ± 0.04 | 20.02 ± 0.04
[3], x1 = 0.4001 | – | – | – | 20.35 ± 0.04 | 19.66 ± 0.04 | 19.06 ± 0.04
[3], x1 = 0.5 | – | – | – | 19.33 ± 0.04 | 18.59 ± 0.04 | 18.02 ± 0.04
[3], x1 = 0.6002 | – | – | – | 18.11 ± 0.04 | 17.41 ± 0.04 | 16.88 ± 0.04
[3], x1 = 0.7002 | – | – | – | 16.71 ± 0.04 | 16.13 ± 0.04 | 15.63 ± 0.04
[3], x1 = 0.8 | – | – | – | 15.16 ± 0.04 | 14.73 ± 0.04 | 14.28 ± 0.04
[3], x1 = 0.9 | – | – | – | 13.53 ± 0.04 | 13.18 ± 0.04 | 12.78 ± 0.04
[3], x1 = 0.95 | – | – | – | 12.69 ± 0.04 | 12.36 ± 0.04 | 11.99 ± 0.04
[3], x1 = 1 | – | – | – | 11.76 ± 0.04 | 11.5 ± 0.04 | 11.19 ± 0.04
[4], x1 = 0.0413 | 1116.67 ± 1.9 | 1112.44 ± 1.9 | 1108.49 ± 2 | – | – | –
[4], x1 = 0.1061 | 1105.37 ± 1.8 | 1100.97 ± 1.9 | 1096.78 ± 1.9 | – | – | –
[4], x1 = 0.1986 | 1088.75 ± 1.8 | 1084.08 ± 1.9 | 1079.65 ± 1.9 | – | – | –
[4], x1 = 0.2999 | 1069.72 ± 1.8 | 1064.9 ± 1.8 | 1060.23 ± 1.9 | – | – | –
[4], x1 = 0.3999 | 1050.01 ± 1.7 | 1045.15 ± 1.8 | 1040.34 ± 1.8 | – | – | –
[4], x1 = 0.5 | 1029.46 ± 1.7 | 1024.57 ± 1.7 | 1019.67 ± 1.8 | – | – | –
[4], x1 = 0.6 | 1008.1 ± 1.6 | 1003.16 ± 1.7 | 998.18 ± 1.7 | – | – | –
[4], x1 = 0.7002 | 985.9 ± 1.6 | 980.84 ± 1.6 | 975.77 ± 1.7 | – | – | –
[4], x1 = 0.8 | 962.85 ± 1.5 | 957.69 ± 1.6 | 952.55 ± 1.6 | – | – | –
[4], x1 = 0.9 | 938.69 ± 1.5 | 933.46 ± 1.5 | 928.29 ± 1.6 | – | – | –
[4], x1 = 0.95 | 926.18 ± 1.4 | 920.99 ± 1.5 | 915.81 ± 1.6 | – | – | –
[4], x1 = 1 | 913.31 ± 1.4 | 908.19 ± 1.5 | 903.11 ± 1.5 | – | – | –
